Results reported in patent publication US20090181910A1, “METHOD OF PREVENTION AND ALLEVIATION OF TOXICITY BY MODULATION OF IRF3” (priority 2006, published 2009).

Assays:
[1] = H&E liver histology in APAP hepatotoxicity; settings: for prevention of APAP-induced necrosis: FIG. 3A
[2] = mouse, in vivo
[3] = mouse, in vivo; remark: listed apart in the source
[4] = mouse, in vivo; remark: listed apart in the source
Hes1 = experiment: BMM Q-PCR: Hes1 mRNA; assay type: cell-based, Murine; settings: FIG. 9b
CRBPII = experiment: RAW 264.7 Q-PCR: CRBPII; assay type: cell-based, murine
Cyp3A11 = settings: mouse, in vivo
UGT1A6 = test system: UGT1A6; parameters: species or system mice; settings: mouse, in vivo
RXRα [5] = experiment: RAW264.7 cells with siHes1, Q-PCR: RXRα mRNA; assay type: cell-based, murine; settings: siRNA specific to Hes1, polyI:C 1 μg/ml 8 hours; FIG. 9d
RXRα [6] = test system: RXRα; parameters: species or system mice; settings: mouse, in vivo
RXRα [7] = experiment: Liver RNA Q-PCR, polyI:C/APAP-treated mice: RXRα; assay type: in vivo; settings: single polyI:C 100 μg i.v. 24 h before APAP 350 mg/kg i.p.; wildtype vs IRF3−/− mice; FIG. 1A
Description: FIG. 1: PolyI:C repression of RXRα and cytochrome P450 family members involves IRF3. Wildtype or IRF3−/− mice (n=4) fasted and were treated with 0.1% NaCl or polyI:C (100 μg) intravenous (i.v.) 24 hours prior to treatment with APAP (350 mg/kg) by intraperitoneal (i.p.) injection. 6 hours post-APAP treatment liver samples were isolated. Liver RNA analyzed by Q-PCR for (A) RXRα (B) Cyp1A2 and (C) Cyp3A11.
Age and sex matched 6-9 week old mice were used for all experiments. C57/B16 mice were obtained from Jackson Laboratory. IRF3^−/− mice were obtained from Dr. T. Taniguchi. For APAP hepatotoxicity analysis, mice fasted for […] and then administered Vehicle (0.1% NaCl) or APAP (175-600 mg/kg) by intraperitoneal injection (i.p.). For serum and histological studies, mice were sacrificed at 6-7 hours post injection and serum and liver samples were retrieved. For survival studies, mice were studied for up to 5 days. For polyI:C studies, mice were also treated with 0.1% NaCl or polyI:C (100 μg) intravenous (i.v.) 12-24 hours prior to APAP treatment. […] Serum alanine aminotransferase (ALT) levels were determined using manufacturer's protocol (TECO Diagnostics). […]
For quantitative realtime PCR (Q-PCR), total RNA was isolated and cDNA synthesized according to manufacturer's protocol: Trizol (RNA) and Bio-Rad iScript (cDNA). […]

CYP24 = test system: CYP24; parameters: species or system mice; settings: mouse, in vivo
RXRα [8] = assay type: cell-based, Murine

polyinosinic:polycytidylic acid [polyI:C]
prevention of cell necrosis ([1]; PCN or ethanol plus lower levels of APAP, FIG. 3B): prevents cell necrosis in these treatments as well | prevention of APAP-induced necrosis ([1]; mice deficient in IRF3, APAP 350 mg/kg): only slightly reduced the severity of necrosis | prevention of APAP-induced necrosis ([1]; wildtype mice, APAP 350 mg/kg): completely prevented such necrosis | LCA-mediated serum ALT increase and liver damage [2]: failed to promote LCA-mediated increases of serum ALT levels or enhance liver damage | serum ALT levels, agent alone [2]: did not significantly increase serum ALT levels | liver damage [3]: strongly induced liver damage | hepatotoxicity, agent alone [4]: did not cause significant hepatotoxicity | Hes1 mRNA (Hes1; LPS 10 ng/ml or polyI:C 1 μg/ml 4 hrs): potently induced | Hes1 induction in IRF3^−/− and IFNAR^−/− BMMs (Hes1; polyI:C 1 μg/ml 4 hrs): involves IRF3, but not Type I IFNs | 9cRA induction of CRBPII (CRBPII): unable to repress 9cRA induction of CRBPII | effect on ASA or PCN induction of CYP3A11 mRNA (Cyp3A11): diminished | effect on induction of CYP3A11 by PCN (Cyp3A11): blunted the induction of CYP3A11 by PCN | IRF3 dependence of UGT1A6 repression (UGT1A6): dependent on IRF3 | effect on ASA or PCN induction of UGT1A6 mRNA (UGT1A6): diminished | polyI:C-mediated repression of RXRα with Hes1 knockdown (RXRα [5]): requirement of Hes1 in polyI:C-mediated repression of RXRα | IRF3 dependence of repression of RXRα and hepatic nuclear receptor target genes (RXRα [6]): IRF3 was critical for the repression of RXRα and hepatic nuclear receptor target genes | RXRα mRNA expression in liver (RXRα [6]; iv): significant reduction in RXRα mRNA expression | RXRα mRNA in liver (RXRα [7]): potent downregulation of RXRα mRNA in an IRF3 dependent manner | effect on induction of CYP24 mRNA by 1,25(OH)2D3 (CYP24): blunted | polyI:C-mediated inhibition of RXRα mRNA in knockout BMMs (RXRα [8]): defective in IRF3^−/− BMMs but not IFNAR^−/− BMMs | RXRα mRNA repression, extended time course (RXRα [8]; 1, 4 or 8 hrs, FIG. 8b): more potent repressor of RXRα mRNA than LPS | RXRα mRNA in BMMs (RXRα [8]; LPS 10 ng/ml or polyI:C 1 μg/ml, 4 hours, FIG. 8a): repressed RXRα mRNA | RXRα primary transcripts (RXRα [8]; polyI:C 4 or 8 hrs, exon-intron primers, FIG. 9a): strongly repressed | RXRα mRNA stability (RXRα [8]; polyI:C 2 hours then Actinomycin D, FIG. 9a): No significant differences
